Results reported in patent publication US8962244B2, “Compounds for modulating RNA binding proteins and uses therefor” (University of Massachusetts, priority 2009, dated 2015).
Read-outs that look alike come from different tables or passages of the source.

Molecular target: T1, MEX-5 (Caenorhabditis elegans, UniProt Q9XUB2)
T1 construct: The fragment of mex-5 containing the TZF domain (amino acids 236-350) was amplified; made in house; host or cells: Escherichia coli JM109
T1 sequence (Q9XUB2 236-350): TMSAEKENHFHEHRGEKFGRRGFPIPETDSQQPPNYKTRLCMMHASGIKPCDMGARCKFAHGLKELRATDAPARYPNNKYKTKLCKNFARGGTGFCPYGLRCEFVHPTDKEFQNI
Test: Fluorescence polarization screening of MEX-5 binding to fluorescein-labeled TCR2 RNA
Settings: read-out: MEX-5 score
Source text: The expression and purification of recombinant MEX-5 protein has previously been described in Pagano, J. M., Farley, B. M., McCoig, L. M. and Ryder, S. P. (2007) “Molecular basis of RNA recognition by the embryonic polarity determinant MEX-5;” J Biol Chem; 282, 8883-8894. The fragment of mex-5 containing the TZF domain (amino acids 236-350) was amplified from a commercially available ORFeome clone (Open Biosystems) and sub-cloned into the vector pMal-c (NEB), which encodes maltose binding protein as an N-terminal fusion. This construct is termed pMal-MEX-5 (236-350).
MEX-5 is expressed in Escherchia. coli JM109 liquid cultures grown at 37° C. Cultures were induced during mid log phase by the addition of 0.1 mM isopropyl 1-thio-β-D-galactopyranoside (IPTG) and allowed to grow for three hours. An amount of 100 μM zinc acetate (final concentration) was added at the time of induction. The pelleted cells were resuspended in lysis buffer (50 mM Tris pH 8.8, 200 mM NaCl, 2 mM DTT, EDTA free protease inhibitor tablet (Roche), 100 μM Zn(OAc)2) and lysed by sonication. The soluble protein was purified in three steps using standard chromatography methods: (1) amylose affinity (NEB), (2) Hi-TRAP-Q (GE Healthcare), and (3) Hi-TRAP-S (GE Healthcare). The Q buffer was composed of 50 mM Tris, pH 8.8, 20 mM-1500 mM NaCl, 2 mM DTT, and 100 μM Zn(OAc)2. The S buffer was composed of 50 mM MOPS, pH 6.0, 20 mM-1500 mM NaCl, 2 mM DTT, 100 μM Zn(OAc)2. The pure fractions, determined by coomassie-stained SDS-PAGE, were dialyzed into storage buffer (20 mM Tris, pH 8.0, 25 mM NaCl, 100 μM Zn(OAc)2, 2 mM DTT). The protein concentration was determined by measuring absorbance at 280 nm and the calculated extinction coefficient. The protein was stored at 50 μM concentration at 4° C.
All RNA oligonucleotides were chemically synthesized by Dharmacon or Integrated DNA Technologies. Upon arrival, each RNA was deprotected and stored according to the manufacturer's instructions. Prior to use, the RNA was resuspended in 10 mM Tris-HCl, pH 8.0, 0.1 mM EDTA, and the concentration determined by UV spectrophotometry using the calculated extinction coefficient at 260 nm based on the specific sequence. The sequence of the MEX-5 binding RNA (TCR2) is […] (SEQ ID NO:1). The POS-1 binding RNA (BMF018) is […] (SEQ ID NO:2). The MEX-3 binding RNA (SEQ 14) is […] (SEQ ID NO:3).
The RNA used for the small molecule screen was labeled at the 3′-end with fluorescein by Dharmacon during synthesis. In a few cases, follow up experiments were performed with post-synthetically labeled RNA. In this case, fluorescein 5-thiosemicarbazide (FTSC, Invitrogen) was used to 3′-end label each RNA after treatment with sodium periodate (see Reines, S. A. and Cantor, C. R. (1974) “New fluorescent hydrazide reagents for the oxidized 3′-terminus of RNA” Nucleic Acids Res. 1, 767-786). A representative 50 μl reaction consisted of 0.5 nanomoles RNA, 100 mM NaOAc, pH 5.1, and 5 nanomoles NaIO4. After the reaction was complete (90 minutes at room temperature), the sample was ethanol precipitated by adding 1 μl RNase free glycogen (Invitrogen 20 μg/μl), 1/20th volume of 5 M NaCl, and 2 volumes of 100% ice-cold ethanol. The resulting pellet was resuspended in 50 μl of 100 mM NaOAc, pH 5.1 containing 1 mM FTSC and was allowed to react overnight at 4° C. in the dark. The unreacted label was removed by ethanol precipitation with resuspension of the pellet in a small volume of TE, and purification over a Roche G-25 size exclusion spin column. The labeling efficiency is determined by calculating the ratio of fluorescein absorbance at 490 nm to RNA-fluorescein absorbance at 260 nm. Typical efficiencies are 60-80%.
The ability of MEX-5 to associate with RNA was monitored by fluorescence polarization using a victor V3 or victor V2V plate reader (Perkin Elmer) in 384-well FluoTrak microplates (Grenier). […]

[1] = 192 μM test compound, score = polarization relative to no-drug and no-protein controls, 0.25 = 75% inhibition, lowest score = greatest inhibition

SMILES | remaining activity at 192 µM [1] | remaining activity at 192 µM
Cn1c(-c2cc(Br)ccc2O)n[nH]c1=S [AN] | 10.5% | –
CCOC(=O)C(=O)Nc1nnc(C(C)(C)C)s1 [CR] | 24.7% | –
COc1ccc(OCc2nnc(S)n2-c2ccccc2)cc1 [CE] | 22.7% | –
O=C(NC(=S)N(Cc1ccccc1)Cc1ccccc1)c1ccc(Br)o1 [CP] | 24.1% | –
CC(=O)Oc1ccc2c(C)cc(=O)oc2c1OC(C)=O [CQ] | – | 24.5%
Sc1nnc(-c2cccs2)n1-c1ccccc1 [R] | 3.52% | –
CCCn1c(NC(=S)Nc2ccccc2)nc2ccccc21 [CH] | 23.1% | –
O=C(Nc1nc2ccccc2s1)c1cccc(C(=O)Nc2nc3ccccc3s2)n1 [AP] | 12.2% | –
CCOC(=O)c1c[nH]c2nc3ccccc3n2c1=O [AM] | 10.5% | –
O=S(=O)(Nc1cc(Cl)c(O)c2ccccc12)c1cccs1 [V] | 6.26% | –
O=[N+]([O-])c1cc(CN2CCOCC2)c2cccnc2c1O [U] | 6.21% | –
CC(=O)Nc1nc(N2C(=O)c3ccccc3C2=O)n(-c2ccccc2)n1 [CV] | 25.5% | –
Cc1ccc(-n2c(-c3ccco3)n[nH]c2=S)cc1 [AS] | 13.1% | –
Sc1nnc(CCc2ccccc2)n1-c1ccccc1 [BD] | 15.5% | –
O=C(CSc1nnc2c(n1)[nH]c1ccccc12)Nc1ccc(S(=O)(=O)Nc2nccs2)cc1 [CI] | 23.2% | –
CCC(=O)NC(c1ccc(OC)c(OC)c1)c1cc([N+](=O)[O-])c2cccnc2c1O (stereo not shown) [AG] | 8.62% | –

SMILES | remaining activity at 192 µM [1] | remaining activity at 192 µM
CCCCn1c(NC(=S)Nc2ccccc2)nc2ccccc21 [AW] | 14.1% | –
O=c1[nH]c(=S)[nH]c2sc3c(c12)CCCCCCCCCC3 [CJ] | 23.4% | –
Sc1nnc(-c2cccs2)n1CCc1ccccc1 [BQ] | 19.5% | –
O=[N+]([O-])c1cc(CN2CCC(c3ccccc3)C2)c(O)c2ncccc12 (stereo not shown) [BX] | 21.2% | –
CC(C)Oc1ccc(Cc2nnc(S)n2-c2ccccc2)cc1Cl [CM] | 23.6% | –
CCc1ccc(-n2c(-c3cc(Cl)ccc3OC)n[nH]c2=S)cc1 [CG] | 23% | –
Cc1ccc(-c2cc(C(=O)Nc3ccccc3Cl)c3ccccc3n2)o1 [BW] | 21.2% | –
Cc1cc(C)nc(NS(=O)(=O)c2ccc(Nc3nc(-c4ccc(O)c(O)c4)cs3)cc2)n1 [AC] | 7.58% | –
CCCc1nnc(NC(=O)c2cccc(C(=O)Nc3nnc(CCC)s3)n2)s1 [AK] | 10.2% | –
COc1ccc(C(=O)Nc2nc(N3C(=O)c4ccccc4C3=O)n(-c3ccccc3)n2)cc1 [BE] | 16.1% | –
Fc1ccc(-n2c(S)nnc2-c2cccs2)cc1 [CL] | 23.5% | –
S=C(Nc1ccccc1)Nc1nc2ccccc2n1Cc1ccccc1 [AR] | 12.9% | –
O=C(Nc1nc2n(n1)C(c1ccccc1)C=C(c1ccccc1)N2)c1ccc([N+](=O)[O-])cc1 (stereo not shown) [BH] | 17.6% | –
O=[N+]([O-])c1cccc(S(=O)(=O)Nc2cc(Cl)c(O)c3ccccc23)c1 [X] | 6.69% | –
CCOC(=O)C(=O)Nc1nnc(Cc2ccc(Cl)cc2)s1 [Q] | 3.51% | –
